Values after ≈ are worked out from the molar mass of the structure shown. Active and inactive are the calls of the source. The calls are words filed in the database; no cut-off is given here.
What was measured:
Staphylococcus aureus [1] = experiment: Antibacterial activity against Staphylococcus aureus; type: functional
Priestia megaterium = experiment: Antibacterial activity against Bacillus megaterium; type: functional
Escherichia coli = experiment: Antibacterial activity against Escherichia coli; type: functional, organism-based
Wolbachia [2] = experiment: Antibacterial activity against Wolbachia; type: functional
Bacillus cereus = experiment: Antibacterial activity against Bacillus cereus after 24 hrs; type: functional
Bacillus licheniformis [3] = experiment: Antibacterial activity against Bacillus licheniformis DSM13 after 24 hrs; type: functional; details: DSM 13 = ATCC 14580, 24 h
Bacillus subtilis = experiment: Antibacterial activity against Bacillus subtilis 168 after 24 hrs; type: functional; details: subsp. subtilis str. 168, 24 h
Micrococcus luteus = experiment: Antibacterial activity against Micrococcus luteus ATCC 4698 after 24 hrs; type: functional; details: ATCC 4698, 24 h
[4] = system: Mycolicibacterium smegmatis; experiment: Antibacterial activity against Mycobacterium smegmatis after 24 hrs; type: functional
Staphylococcus aureus [5] = experiment: Antibacterial activity against Staphylococcus aureus SG511 after 24 hrs; type: functional; details: SG511, 24 h
Staphylococcus simulans = experiment: Antibacterial activity against Staphylococcus simulans 22 after 24 hrs; type: functional; details: Staphylococcus simulans, 22, 24 h
Mycolicibacterium phlei = experiment: Antibacterial activity against Mycobacterium phlei after 24 hrs; type: functional
Bacillus licheniformis [6] = experiment: Antibacterial activity against Bacillus licheniformis MW3 after 24 hrs; type: functional; details: MW3, 24 h
Wolbachia [7] = experiment: Antibacterial activity against Wolbachia infected in C6/36 cells assessed as decrease in 16s rRNA copies by qPCR analysis; type: functional, cell-based
Wolbachia [8] = experiment: Antibacterial activity against Wolbachia infected in C6/36 cells assessed as decrease in 16s rRNA copies at 0.01, 0.1 and 0.5 microg/ml by qPCR analysis; type: functional, cell-based

| MIC (Staphylococcus simulans) [µg/mL] | MIC (Mycolicibacterium phlei) [µg/mL] | MIC (Bacillus licheniformis [6]) [µg/mL] | SMILES | other results |
| --- | --- | --- | --- | --- |
| 1 (≈ 1.9 µM) | > 64 | 64 (≈ 121 µM) | C/C=C/C/C=C(\C)C(O)CC/C(C)=C/C=C(\C)C(=O)c1c(O)cc([C@H](C)CC/C=C/NC(=O)OC)oc1=O (some centres not stated) [CORALLOPYRONIN A] | MIC (Bacillus cereus): 2 µg/mL (≈ 3.79 µM); MIC (Bacillus licheniformis [3]): 2 µg/mL (≈ 3.79 µM); MIC (Bacillus subtilis): 16 µg/mL (≈ 30.3 µM); MIC (Micrococcus luteus): 1 µg/mL (≈ 1.9 µM); MIC [4]: > 64 µg/mL; MIC (Staphylococcus aureus [5]): 0.5 µg/mL (≈ 0.948 µM); inhibition (Wolbachia [7]): Dose-dependent effect |
| 64 (≈ 112 µM) | > 64 | 64 (≈ 112 µM) | C/C=C/C/C=C(/C)[C@@H](CC/C(C)=C/C=C(\C)C(=O)c1c(O)cc([C@H](C)CC/C=C/NC(=O)OC)oc1=O)OC(C)=O |  |
| 16 (≈ 30.4 µM) |  | 32 (≈ 60.9 µM) | C/C=C/C/C=C(/C)C(=O)CC/C(C)=C/C=C(\C)C(=O)c1c(O)cc([C@H](C)CC/C=C/NC(=O)OC)oc1=O |  |
| > 64 |  | > 64 | C/C=C/C/C=C(/C)[C@@H](CC/C(C)=C/C=C(\C)C(=O)c1c(O)cc([C@H](C)CC/C=C/NC(=O)OC)oc1=O)OC(=O)COC(C)=O |  |
| 4 (≈ 7.82 µM) |  |  | C/C=C/C/C=C(/C)CCC/C(C)=C/C=C(\C)C(=O)c1c(O)cc([C@H](C)CC/C=C/NC(=O)OC)oc1=O | MIC (Bacillus cereus): 2 µg/mL (≈ 3.91 µM); MIC (Bacillus licheniformis [3]): 4 µg/mL (≈ 7.82 µM); MIC (Bacillus subtilis): 32 µg/mL (≈ 62.5 µM); MIC (Micrococcus luteus): 4 µg/mL (≈ 7.82 µM); MIC [4]: > 64 µg/mL; MIC (Staphylococcus aureus [5]): 2 µg/mL (≈ 3.91 µM); inhibition (Wolbachia [8]): Active |
| > 64 |  | > 64 | C/C=C/C/C=C(/C)[C@@H](CC/C(C)=C/C=C(\C)C(=O)c1c(O)cc([C@H](C)CC/C=C/NC(=O)OC)oc1=O)OC(=O)c1cccs1 |  |

Continued, compound first:

| SMILES | MIC (Staphylococcus simulans) [µg/mL] | MIC (Mycolicibacterium phlei) [µg/mL] | MIC (Bacillus licheniformis [6]) [µg/mL] | other results |
| --- | --- | --- | --- | --- |
| CC/C=C/C/C=C(/C)[C@H](O)CC/C(C)=C/C=C(\C)C(=O)c1c(O)cc([C@H](C)CC/C=C/NC(=O)OC)oc1=O |  |  |  | MIC (Staphylococcus aureus [1]): 0.4 µg/mL (≈ 0.738 µM); MIC (Priestia megaterium): 1.6 µg/mL (≈ 2.95 µM) |
| CCCCCCCCCCCCC/C=C/[C@@H](O)[C@H](CO)NC(=O)CCCCCCNC(=O)OC |  |  |  | Activity (Priestia megaterium): inactive; Activity (Escherichia coli): inactive; Activity (Wolbachia [2]): inactive |
| C/C=C/C/C=C(/C)[C@@H](CC/C(C)=C/C=C(\C)C(=O)c1c(O)cc([C@H](C)CC/C=C/NC(=O)OC)oc1=O)OC(=O)c1ccc(F)cc1 | > 64 |  | > 64 |  |
| C/C=C/C/C=C(/C)C1CCC(C)(C/C=C(\C)C(=O)c2c(O)cc([C@H](C)CC/C=C/NC(=O)OC)oc2=O)O1 (some centres not stated) |  |  |  | MIC (Staphylococcus aureus [1]): 0.4 µg/mL (≈ 0.758 µM); MIC (Priestia megaterium): 1.6 µg/mL (≈ 3.03 µM) |
| C/C=C/C/C=C(/C)[C@@H](CC/C(C)=C/C=C(\C)C(=O)c1c(O)cc([C@H](C)CC/C=C/NC(=O)OC)oc1=O)OC(=O)c1ccco1 | 64 (≈ 103 µM) | > 64 | 64 (≈ 103 µM) |  |
| C/C=C/C/C=C(/C)[C@@H](CC/C(C)=C/C=C(\C)C(=O)c1c(O)cc([C@H](C)CC/C=C/NC(=O)OC)oc1=O)OC(=O)[C@](OC)(c1ccccc1)C(F)(F)F | 32 (≈ 43 µM) | > 64 | > 16 |  |
| C/C=C/C/C=C(/C)C(O)CC/C(C)=C\C=C(/C)C(=O)c1c(O)cc([C@H](C)CC/C=C/NC(=O)OC)oc1=O (some centres not stated) |  |  |  | MIC (Staphylococcus aureus [1]): 0.1 µg/mL (≈ 0.19 µM); MIC (Priestia megaterium): 0.8 µg/mL (≈ 1.52 µM) |
| C/C=C/C/C=C(/C)[C@@H](CC/C(C)=C/C=C(\C)C(=O)c1c(O)cc([C@H](C)CC/C=C/NC(=O)OC)oc1=O)OC(=O)CCCCCCCCC | > 64 |  | 64 (≈ 93.9 µM) |  |
| C/C=C/C/C=C(/C)[C@@H](CC/C(C)=C/C=C(\C)C(=O)c1c(O)cc([C@H](C)CC/C=C/NC(=O)OC)oc1=O)OC(=O)c1ccccc1 | > 64 | > 64 | 64 (≈ 101 µM) |  |
| C/C=C/C/C=C(/C)[C@@H](CC/C(C)=C/C=C(\C)C(=O)c1c(O)cc([C@H](C)CC/C=C/NC(=O)OC)oc1=O)OC(=O)[C@@](OC)(c1ccccc1)C(F)(F)F | 64 (≈ 86 µM) | > 64 | > 16 |  |
